{
  "source": "patent US6576669B2",
  "about": "(Boehringer Ingelheim Pharma KG, priority 2001, dated 2003)",
  "test_system": "muc-5AC RNA",
  "assay": "Biochemical study: Pseudomonas aeruginosa LPS aerosol-induced muc-5AC RNA in rat trachea (TaqMan real time PCR)",
  "assay_type": "in vivo",
  "details": "3 mg/kg p.o. 6 hours before LPS aerosol, trachea taken 20 hours after exposure, compared with vehicle pre-treatment",
  "procedure": "Two different rat strains, BDE and F344/NHsd, were tested because previous studies had shown strain-related differences in reactivity to lipopolysaccharides.\nAnimals Used: Adult male rats, strain BDE/Han, average weight about […] (range 340 g to 450 g), and adult male F344/NHsd rats, average weight about 250 g (range 240 g to 260g).\nAnimal Maintenance: The rats were housed in air-conditioned rooms, at 21° C.-25° C., relative humidity between 50% and 65%, day-night cycle 12 hours. They were fed before the start of the experiment and received tap water ad lib. 18 hours prior to drug administration, food was withdrawn, but drinking water remained available.\nThe compound of formula (I), namely carbamic acid, [[4-[[3-[[4-[1-(4-hydroxyphenyl)-1-methylethyl]phenoxy]methyl]phenyl]methoxy]phenyl]iminomethyl]ethyl ester, was synthesized as described in the International Patent Application WO 96/02497 and jet milled. For administration to animals, the compound of formula (I) was first dissolved in LABRASOL® and a 7% emulsion was then prepared of this LABRASOL® solution in distilled water (homogenized). […]\nExtraction and Quantitation of RNA: Total RNA was isolated with the RNeasy system (Qiagen, Germany). […] Quantitation of muc-5AC RNA was performed by the TAQMAN® real time PCR system using an ABI Prism 7700 Detector (Perkin Elmer Corporation, California USA). […]",
  "data": [
    {"smiles": "CCOC(=O)/N=C(\\N)c1ccc(OCc2cccc(COc3ccc(C(C)(C)c4ccc(O)cc4)cc3)c2)cc1", "note": "[compound (I)]", "values": [
      {"measurement": "increase in tracheal epithelial expression of the muc-5AC gene (relative to 18S ribosomal RNA) after Pseudomonas aeruginosa aerosol", "setting": "BDE strain rats, p=0.003", "result": "reduced this increase to less than half the value with only vehicle pre-treatment"},
      {"measurement": "increase in tracheal epithelial expression of the muc-5AC gene (relative to 18S ribosomal RNA) after Pseudomonas aeruginosa aerosol", "setting": "F344 strain rats, p=0.010", "result": "reduced this increase to less than half the value with only vehicle pre-treatment"}
    ]}
  ]
}
